Assay results published in publication PMC9238271, “The quorum sensing peptide EntF* promotes colorectal cancer metastasis in mice: a new factor in the host-microbiome interaction” (BMC Biology, 2022).
“And” between values parts separate entries of the source, which are not always exact repeats. Equal entries are not always repeated.

How the values were obtained:
[1] = In vitro metabolization of EntF: formation of EntF* in feces homogenate; type: in vitro ADME, C57BL/6 female mice; conditions: for EntF* Conc / EntF* without metabolisation, Conc / EntF*/EntF %: Feces, initial concentration EntF 31.82 µM
Protocol: Krebs-Henseleit (KH) buffer (Sigma-Aldrich, Belgium) was prepared by dissolving the powdered medium in 900 mL water while stirring. Once the powder was completely dissolved, 0.3790 g CaCl2•2H2O and 2.098 g NaHCO3 were added to the solution. NaOH or HCl was used to adjust the pH to 7.4. The solution was brought to final volume (1000 mL) with ultrapure water.
Feces homogenates were prepared, after collecting fecal material from two untreated C57BL/6 female mice after cervical dislocation, by using the same procedures employed for colon tissue homogenate preparation. Before use, the homogenate was diluted to a final protein concentration of 0.6 mg/mL.
(§1) To avoid the absorption of EntF* onto plasticware and glassware, all tubes and containers were coated with a BSA-based anti-adsorption solution before use.
Five hundred microliters of tissue homogenate were mixed with 400 μL of pre-warmed KH buffer. Then, 100 μL of KH buffer (blank) or 1 mg/mL EntF peptide solution (test) were added to the diluted homogenate and incubated at 37 °C. […] After centrifugation at 16,000g for 30 min at 5 °C, supernatants were analyzed by LC1-MS1 for EntF* quantification.
(§2) EntF* was detected and quantified on a Waters Acquity® UPLC H-class system, connected to a Waters Xevo™ TQ-S triple quadrupole mass spectrometer with electrospray ionization (operated in positive ionization mode). Autosampler tray and column oven were kept at 10 ± 5 °C and 60 ± 5 °C, respectively. Chromatographic separation was achieved on a Waters Acquity® UPLC BEH Peptide C18 column (300 Å, 1.7 μm, 2.1 mm × 100 mm). The mobile phases consisted of 93/2/5 water/acetonitrile/DMSO (V/V/V) containing 0.1% formic acid (mobile phase A) and 2/93/5 water/acetonitrile/DMSO (V/V/V) containing 0.1% formic acid (mobile phase B), and the flow rate was set to 0.5 mL/min. A 10-μL aliquot from each sample was injected. The gradient program started with 80% of mobile phase A for 1 min, followed by a linear gradient to 40% of mobile phase A for 3.5 min. Gradient was then changed to 14.2% mobile phase A at 5 min, followed by a 1 min equilibration, before starting conditions were applied. EntF* retention time was between 4.25 and 4.45 min.
An optimized capillary voltage of 3.00 kV, a cone voltage of 20.00 V, and a source offset of 50.0 V were used. Acquisition was done in the MRM mode. The selected precursor ion for EntF* was m/z 865.7 with two selected product ions at m/z 202.08 (36 eV, b2 fragment) as quantifier and m/z 315.17 (31 eV, b3 fragment) as qualifier.

[2] = Caco-2 monolayer permeability assay; type: in vitro ADME; conditions: Caco-2 Transwell A -> B, 1 µM EntF* apical, HBSS, LC1-MS1; average of AB1-AB6; read-out: Kapp, average
Protocol: as §1
(§3) HCT-8, HT-29, and HT-116 cells were grown in DMEM medium supplied with 10% fetal bovine serum (FBS) and 1% penicillin-streptomycin. Caco-2 cells were grown in DMEM medium supplied with 10% FBS, 1% non-essential amino acid NEAA), and 1% penicillin-streptomycin. Cells were cultured at 37 °C and 5% CO2. As cells reached confluency, they were detached using 0.25% Trypsin-EDTA.
(§4) Caco-2 cells were seeded on Transwell polycarbonate membrane filters (0.4 μm pore size, Corning, Germany) at a density of 2.6 × 10^5 cells/cm^2 and permeability tests performed as described by Hubatsch et al.. Cells were submerged with Hank’s balanced salt solution (HBSS), and transepithelial electrical resistance (TEER) was measured before and after the experiment. Peptide solution (1 μM) was added to the apical chamber, and 300 μL aliquots were taken after 30, 60, 90, and 120 min of incubation. Samples were analyzed using LC1-MS1. Linear curve fitting was used to calculate the apparent permeability coefficient (Papp).
as §2

Caco-2 monolayer = Caco-2 monolayer permeability assay; type: in vitro ADME; conditions: for Kapp / Cumulative conc / Cumulative amount / Mean cumulative amount / Mean cumulative concentration / % Dose applied / Conc in receiver compartment: Caco-2 Transwell A -> B; for Kapp / Cumulative conc / Cumulative amount / Mean cumulative amount / Mean cumulative concentration: 1 µM EntF* apical; for Kapp / Conc in receiver compartment: LC1-MS1; for Cumulative conc / Cumulative amount / % Dose applied / Conc in receiver compartment: individual replicates A -> B (1)-(6); for Mean cumulative amount / Mean cumulative concentration: mean of n = 6; for % Dose applied: amount applied 0.4 nmol; for Conc in receiver compartment: dose solution 1 µM EntF* (0.4 nmol applied), cell vol 1.200 ml
Protocol: as §1, §3, §4, §2

CC(C)C[C@@H]1NC(=O)[C@H](CO)NC(=O)[C@H](Cc2ccccc2)NC(=O)[C@H](C(C)C)NC(=O)[C@@H](NC(=O)[C@H](CCC(=O)O)NC(=O)[C@@H](NC(=O)[C@H](CC(C)C)NC(=O)[C@H](CC(N)=O)NC(=O)[C@@H](N)CO)C(C)C)CSSC[C@@H](C(=O)N[C@@H](CC(N)=O)C(=O)O)NC(=O)[C@H](CCCCN)NC(=O)[C@H](CCCCN)NC(=O)[C@H](Cc2ccccc2)NC1=O (single isomer, unassigned) [EntF*]
EntF* Conc ([1]; Time 0): 0.00 µM
EntF* without metabolisation, Conc ([1]; Time 0): 0.0 µM
EntF*/EntF % ([1]; Time 0): 0.0%
EntF* Conc ([1]; Time 1): 0.50 µM
EntF* without metabolisation, Conc ([1]; Time 1): 0.529 µM
EntF*/EntF % ([1]; Time 1): 1.7%
EntF* Conc ([1]; Time 5): 3.00 µM
EntF* without metabolisation, Conc ([1]; Time 5): 3.9 µM
EntF*/EntF % ([1]; Time 5): 12.4%
EntF* Conc ([1]; Time 10): 2.69 µM
EntF* without metabolisation, Conc ([1]; Time 10): 4.6 µM
EntF*/EntF % ([1]; Time 10): 14.5%
EntF* Conc ([1]; Time 30): 2.33 µM
EntF* without metabolisation, Conc ([1]; Time 30): 11.8 µM
EntF*/EntF % ([1]; Time 30): 37.1%
Formation rate, Faeces, Average ([1]; mouse feces homogenate, Krebs-Henseleit buffer pH 7.4, 37 °C, LC1-MS1, average of X1-X4): 1.71 %*min-1
Formation rate, Faeces ([1]; mouse feces homogenate, Krebs-Henseleit buffer pH 7.4, 37 °C, LC1-MS1, replicate X1): 1.6635 %*min-1
Formation rate, Faeces ([1]; mouse feces homogenate, Krebs-Henseleit buffer pH 7.4, 37 °C, LC1-MS1, replicate X2): 2.4748 %*min-1
Formation rate, Faeces ([1]; mouse feces homogenate, Krebs-Henseleit buffer pH 7.4, 37 °C, LC1-MS1, replicate X3): 1.4512 %*min-1
Formation rate, Faeces ([1]; mouse feces homogenate, Krebs-Henseleit buffer pH 7.4, 37 °C, LC1-MS1, replicate X4): 1.2367 %*min-1
Papp A→B [2]: 0.00367 ×10⁻⁶ cm/s
Kapp (Caco-2 monolayer; HBSS, replicate AB1): 2.13e-07 cm/min
Kapp (Caco-2 monolayer; HBSS, replicate AB2): 1.88e-07 cm/min
Kapp (Caco-2 monolayer; HBSS, replicate AB3): 2.21e-07 cm/min
Kapp (Caco-2 monolayer; HBSS, replicate AB4): 2.07e-07 cm/min
Kapp (Caco-2 monolayer; HBSS, replicate AB5): 2.81e-07 cm/min
Kapp (Caco-2 monolayer; HBSS, replicate AB6): 2.12e-07 cm/min
Cumulative conc (Caco-2 monolayer; HBSS, time 30 min): 43.732 pM and 39.850 pM and 48.195 pM and 54.684 pM and 29.485 pM and 29.005 pM
Cumulative amount (Caco-2 monolayer; HBSS, time 60 min): 30.299 amol and 45.664 amol and 39.602 amol and 52.014 amol and 67.922 amol and 37.955 amol
Cumulative conc (Caco-2 monolayer; HBSS, time 60 min): 25.249 pM and 38.053 pM and 33.002 pM and 43.345 pM and 56.602 pM and 31.630 pM
Cumulative amount (Caco-2 monolayer; HBSS, time 90 min): 46.426 amol and 46.765 amol and 42.758 amol and 52.183 amol and 67.818 amol and 43.254 amol
Cumulative conc (Caco-2 monolayer; HBSS, time 90 min): 38.688 pM and 38.971 pM and 35.631 pM and 43.485 pM and 56.515 pM and 36.045 pM
Cumulative amount (Caco-2 monolayer; HBSS, time 120 min): 37.088 amol and 40.742 amol and 47.116 amol and 44.500 amol and 55.592 amol and 38.733 amol
Cumulative conc (Caco-2 monolayer; HBSS, time 120 min): 30.906 pM and 33.952 pM and 39.263 pM and 37.084 pM and 46.326 pM and 32.277 pM
Mean cumulative amount (Caco-2 monolayer; time 30 min): 48.990 amol
Mean cumulative concentration (Caco-2 monolayer; time 30 min): 40.825 pM
Mean cumulative amount (Caco-2 monolayer; time 60 min): 45.576 amol
Mean cumulative concentration (Caco-2 monolayer; time 60 min): 37.980 pM
Mean cumulative amount (Caco-2 monolayer; time 90 min): 49.867 amol
Mean cumulative concentration (Caco-2 monolayer; time 90 min): 41.556 pM
Mean cumulative amount (Caco-2 monolayer; time 120 min): 43.962 amol
Mean cumulative concentration (Caco-2 monolayer; time 120 min): 36.635 pM
% Dose applied (Caco-2 monolayer; time 30 min): 13.120% and 11.955% and 14.459% and 16.405% and 8.846%
% Dose applied (Caco-2 monolayer; time 60 min): 7.575% and 11.416% and 9.901% and 13.004% and 16.980% and 9.489%
% Dose applied (Caco-2 monolayer; time 90 min): 11.606% and 11.691% and 10.689% and 13.046% and 16.954% and 10.813%
% Dose applied (Caco-2 monolayer; time 120 min): 9.272% and 10.185% and 11.779% and 11.125% and 13.898% and 9.683%
Conc in receiver compartment (Caco-2 monolayer; HBSS, time 0 min): 0.0217667 nM and 0.0386367 nM and 0.0252731 nM and 0.06096 nM and 0.0351635 nM and 0.0240173 nM
Conc in receiver compartment (Caco-2 monolayer; HBSS, time 30 min): 0.0382904 nM and 0.0301911 nM and 0.0418772 nM and 0.0394437 nM and 0.0206944 nM and 0.0230007 nM
Conc in receiver compartment (Caco-2 monolayer; HBSS, time 60 min): 0.0134944 nM and 0.0230389 nM and 0.015795 nM and 0.0265575 nM and 0.0315007 nM and 0.0176651 nM
Conc in receiver compartment (Caco-2 monolayer; HBSS, time 90 min): 0.02356 nM and 0.0181966 nM and 0.0144756 nM and 0.0200585 nM and 0.0235388 nM and 0.017664 nM
Conc in receiver compartment (Caco-2 monolayer; HBSS, time 120 min): 0.009888 nM and 0.0086284 nM and 0.0144888 nM and 0.008642 nM and 0.007466 nM and 0.009481 nM
apparent permeability coefficient (Papp) (Caco-2 monolayer; Caco-2 monolayer on Transwell polycarbonate filters (0.4 μm), apical to basolateral, HBSS, 1 μM peptide in apical chamber, aliquots 30, 60, 90, 120 min, LC1-MS1, linear curve fitting, mean ± SEM, n = 6): 3.67 ± 0.22 × 10^−9 cm s^−1
